According to patent US20210261570A1, “ANTIBIOTIC RESISTANCE BREAKERS” (KING'S COLLEGE LONDON, priority 2017, published 2021):
Values after ≈ are worked out from the molar mass of the structure shown. Where two headings read alike, the source gives them in different places.

How the values were obtained:
[1] = system: Safetyscreen44 panel
[2] = biological target: Safetyscreen44 panel (Homo sapiens, UniProt P21728); conditions: D1 (h) (antagonist radioligand)
[3] = system: Neisseria gonorrhoeae strains; type: cell-based
Description: Untreated controls and blank wells were included.

Sequence of Safetyscreen44 panel (Homo sapiens, UniProt P21728) (P21728 whole entry): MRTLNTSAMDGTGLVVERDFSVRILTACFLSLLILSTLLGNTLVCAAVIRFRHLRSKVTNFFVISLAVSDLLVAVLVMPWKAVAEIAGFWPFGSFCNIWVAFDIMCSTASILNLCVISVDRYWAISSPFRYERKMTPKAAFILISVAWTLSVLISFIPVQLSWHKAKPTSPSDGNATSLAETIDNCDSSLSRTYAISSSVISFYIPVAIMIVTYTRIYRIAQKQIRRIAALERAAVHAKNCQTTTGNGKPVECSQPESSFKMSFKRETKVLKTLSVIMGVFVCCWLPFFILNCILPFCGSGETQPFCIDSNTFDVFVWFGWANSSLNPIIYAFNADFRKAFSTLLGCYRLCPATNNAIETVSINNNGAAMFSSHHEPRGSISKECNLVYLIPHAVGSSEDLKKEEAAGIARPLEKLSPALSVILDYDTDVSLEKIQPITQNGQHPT

C[C@H]1COc2c(N3CC[C@@H](Nc4ncccn4)C3)c(F)cc3c(=O)c(C(=O)O)cn1c23 [KSN-82-L22]
% inhibition ([1]; KV channel (antagonist radioligand)): −4.644%
% inhibition ([1]; alpha 2A (h) (antagonist radioligand)): 4.4791%
% inhibition [2]: −15.4033%
MIC ([3]; strain 2007NG046, resistance PEN-R CFM-R CPD-R CIP-R): 4 µg/mL (≈ 9.4 µM)
MIC ([3]; strain 2008NG057, resistance PEN-R CFM-R CPD-R CIP-R): 2 µg/mL (≈ 4.7 µM)
MIC ([3]; strain 2008NG097, resistance PEN-R CFM-R CPD-R CIP-R): 2 µg/mL (≈ 4.7 µM)
MIC ([3]; strain 2009NG514, resistance PEN-R CPD-R CIP-R): 2 µg/mL (≈ 4.7 µM)
MIC ([3]; strain 2010NG122, resistance PEN-R CFM-R CIP-R): 2 µg/mL (≈ 4.7 µM)
MIC ([3]; strain ATCC 49226, resistance PEN-I TET-I): ≤0.03125 µg/mL
MIC ([3]; strain ATCC 700825, resistance —): ≤0.03125 µg/mL
MIC ([3]; strain BAA-1833, resistance PEN-I TET-I): ≤0.03125 µg/mL
MIC ([3]; strain BAA-1838, resistance —): ≤0.03125 µg/mL
MIC ([3]; strain CCUG 57595, resistance —): ≤0.03125 µg/mL
MIC ([3]; strain CCUG 57596, resistance CIP-I PEN-I TET-R): 0.125 µg/mL (≈ 0.294 µM)
MIC ([3]; strain CCUG 57597, resistance FEP-NS FOX-I CAZ-NS CIP-R OFX-R PEN-R TET-R): 2 µg/mL (≈ 4.7 µM)
MIC ([3]; strain CCUG 57598, resistance FOX-R CAZ-NS CRO-NS CIP-R OFX-R PEN-R TET-R): 2 µg/mL (≈ 4.7 µM)
MIC ([3]; strain CCUG 57599, resistance CIP-R OFX-R PEN-R TET-R): 0.5 µg/mL (≈ 1.18 µM)
MIC ([3]; strain CCUG 57600, resistance CIP-R OFX-R PEN-R TET-R): 1 µg/mL (≈ 2.35 µM)
MIC ([3]; strain CCUG 57601, resistance PEN-R TET-R): ≤0.03125 µg/mL
MIC ([3]; strain CCUG 57602, resistance PEN-I TET-I): 0.0625 µg/mL (≈ 0.147 µM)
MIC ([3]; strain FDA-CDC AR-BANK#0165, resistance CIP-R PEN-I TET-R): 2 µg/mL (≈ 4.7 µM)
MIC ([3]; strain FDA-CDC AR-BANK#0166, resistance CIP-R PEN-I TET-R): 2 µg/mL (≈ 4.7 µM)
MIC ([3]; strain FDA-CDC AR-BANK#0167, resistance CIP-S PEN-S TET-I): ≤0.03125 µg/mL
MIC ([3]; strain FDA-CDC AR-BANK#0168, resistance CIP-R PEN-I TET-R): 1 µg/mL (≈ 2.35 µM)
MIC ([3]; strain FDA-CDC AR-BANK#0169, resistance CIP-R PEN-I TET-R): 2 µg/mL (≈ 4.7 µM)
MIC ([3]; strain FDA-CDC AR-BANK#0170, resistance CIP-R PEN-I TET-R): 2 µg/mL (≈ 4.7 µM)
MIC ([3]; strain FDA-CDC AR-BANK#0171, resistance CIP-R PEN-I TET-R): 1 µg/mL (≈ 2.35 µM)
MIC ([3]; strain FDA-CDC AR-BANK#0172, resistance CIP-R PEN-R TET-R): 1 µg/mL (≈ 2.35 µM)
MIC ([3]; strain FDA-CDC AR-BANK#0173, resistance CIP-R PEN-R TET-R): 2 µg/mL (≈ 4.7 µM)
MIC ([3]; strain FDA-CDC AR-BANK#0174, resistance CIP-R PEN-R TET-R): 2 µg/mL (≈ 4.7 µM)
MIC ([3]; strain FDA-CDC AR-BANK#0175, resistance CIP-S PEN-I TET-I): ≤0.03125 µg/mL
MIC ([3]; strain FDA-CDC AR-BANK#0176, resistance CIP-R PEN-R TET-R): 2 µg/mL (≈ 4.7 µM)
MIC ([3]; strain FDA-CDC AR-BANK#0177, resistance CIP-S PEN-I TET-R): ≤0.03125 µg/mL
MIC ([3]; strain FDA-CDC AR-BANK#0178, resistance CIP-R PEN-R TET-R): 2 µg/mL (≈ 4.7 µM)
MIC ([3]; strain FDA-CDC AR-BANK#0179, resistance CIP-S PEN-S TET-I): ≤0.03125 µg/mL
MIC ([3]; strain FDA-CDC AR-BANK#0180, resistance CIP-R PEN-I TET-R): 2 µg/mL (≈ 4.7 µM)
MIC ([3]; strain FDA-CDC AR-BANK#0181, resistance CIP-S PEN-I TET-R): ≤0.03125 µg/mL
MIC ([3]; strain FDA-CDC AR-BANK#0182, resistance CIP-R PEN-I TET-R): 2 µg/mL (≈ 4.7 µM)
MIC ([3]; strain FDA-CDC AR-BANK#0183, resistance CIP-R PEN-R TET-R): 2 µg/mL (≈ 4.7 µM)
MIC ([3]; strain FDA-CDC AR-BANK#0184, resistance CIP-R PEN-R TET-R): 2 µg/mL (≈ 4.7 µM)
MIC ([3]; strain FDA-CDC AR-BANK#0185, resistance CIP-R PEN-I TET-R): 2 µg/mL (≈ 4.7 µM)
MIC ([3]; strain FDA-CDC AR-BANK#0186, resistance CIP-R PEN-R TET-R): 1 µg/mL (≈ 2.35 µM)
MIC ([3]; strain FDA-CDC AR-BANK#0187, resistance CIP-R PEN-I TET-R): 2 µg/mL (≈ 4.7 µM)
MIC ([3]; strain FDA-CDC AR-BANK#0188, resistance CIP-R PEN-I TET-R): 1 µg/mL (≈ 2.35 µM)
MIC ([3]; strain FDA-CDC AR-BANK#0189, resistance CIP-R PEN-R TET-R): 2 µg/mL (≈ 4.7 µM)
MIC ([3]; strain FDA-CDC AR-BANK#0190, resistance CIP-R PEN-R TET-R): 2 µg/mL (≈ 4.7 µM)
MIC ([3]; strain FDA-CDC AR-BANK#0191, resistance CIP-R PEN-R TET-R): 2 µg/mL (≈ 4.7 µM)
MIC ([3]; strain FDA-CDC AR-BANK#0192, resistance CIP-R PEN-R TET-R): 2 µg/mL (≈ 4.7 µM)
